Laboratory results: PubChem BioAssay (NCI)
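Grown in 96-well plates, cells were treated for 48 hours with each compound at five concentrations. Insufficient inhibition: endpoint recorded as highest concentration tested. At the GI50, growth is halved. The concentration for full growth arrest is given as TGI.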

Experiments:
Experiment in all cases: NCI anticancer screen, dose series, 48 h
SK-OV-3 ovarian = system: SK-OV-3 ovarian
HOP-92 NSCLC = system: HOP-92 NSCLC
SK-MEL-5 melanoma = system: SK-MEL-5 melanoma
SNB-78 CNS = system: SNB-78 CNS
M14 melanoma = system: M14 melanoma
OVCAR-5 ovarian = system: OVCAR-5 ovarian
NCI-H522 lung = system: NCI-H522 lung
TK-10 renal = system: TK-10 renal
LXFL 529 NSCLC = system: LXFL 529 NSCLC
KM12 colon = system: KM12 colon
NCI-H460 lung = system: NCI-H460 lung
SF-295 CNS = system: SF-295 CNS
K-562 leukemia = system: K-562 leukemia
SK-MEL-28 melanoma = system: SK-MEL-28 melanoma
M19-MEL melanoma = system: M19-MEL melanoma
IGROV1 ovarian = system: IGROV1 ovarian
SN12C renal = system: SN12C renal
RXF 393 renal = system: RXF 393 renal
LOX IMVI melanoma = system: LOX IMVI melanoma
XF 498 CNS = system: XF 498 CNS
NCI-H23 lung = system: NCI-H23 lung
HT29 colon = system: HT29 colon
DMS 273 small cell lung = system: DMS 273 small cell lung
MOLT-4 leukemia = system: MOLT-4 leukemia
SK-MEL-2 melanoma = system: SK-MEL-2 melanoma
UACC-62 melanoma = system: UACC-62 melanoma
MALME-3M melanoma = system: MALME-3M melanoma
RPMI-8226 leukemia = system: RPMI-8226 leukemia
HL-60(TB) leukemia = system: HL-60(TB) leukemia

CC[O-].Cc1ccc2cccc([O-])c2n1.Cc1ccc2cccc([O-])c2n1.Cc1ccc2cccc([O-])c2n1.[Ti+4] was tested, and the GI50 (SK-OV-3 ovarian) was > 68.9 µM, the TGI (SK-OV-3 ovarian) was > 100 µM and the GI50 (HOP-92 NSCLC) was > 100 µM. The TGI (HOP-92 NSCLC) was > 100 µM, the GI50 (SK-MEL-5 melanoma) was 22.6 µM and the TGI (SK-MEL-5 melanoma) was 52 µM. The GI50 (SNB-78 CNS) was 59.7 µM, the TGI (SNB-78 CNS) was > 100 µM and the GI50 (M14 melanoma) was 22.2 µM. The TGI (M14 melanoma) was > 53.5 µM, the GI50 (OVCAR-5 ovarian) was > 65 µM and the TGI (OVCAR-5 ovarian) was > 100 µM. The GI50 (NCI-H522 lung) was 14 µM, the TGI (NCI-H522 lung) was 30.4 µM and the GI50 (TK-10 renal) was 44.2 µM. The TGI (TK-10 renal) was > 83.9 µM, the GI50 (LXFL 529 NSCLC) was 24.8 µM and the TGI (LXFL 529 NSCLC) was > 49.3 µM. It also gave a GI50 (KM12 colon) of 20.9 µM, a TGI (KM12 colon) of 74.8 µM and a GI50 (NCI-H460 lung) of 20.2 µM. For the same compound, the TGI (NCI-H460 lung) was > 100 µM, the GI50 (SF-295 CNS) was 17.5 µM and the TGI (SF-295 CNS) was > 62 µM. For the same compound, the GI50 (K-562 leukemia) was 11.7 µM, the TGI (K-562 leukemia) was 52.2 µM and the GI50 (SK-MEL-28 melanoma) was > 65.2 µM. The TGI (SK-MEL-28 melanoma) was > 100 µM, the GI50 (M19-MEL melanoma) was 14 µM and the TGI (M19-MEL melanoma) was 27.7 µM. The GI50 (IGROV1 ovarian) was 43.2 µM, the TGI (IGROV1 ovarian) was > 100 µM and the GI50 (SN12C renal) was 65.3 µM. The TGI (SN12C renal) was > 100 µM, the GI50 (RXF 393 renal) was 30.9 µM and the TGI (RXF 393 renal) was 70.9 µM. For the same compound, the GI50 (LOX IMVI melanoma) was 18.2 µM, the TGI (LOX IMVI melanoma) was 47.9 µM and the GI50 (XF 498 CNS) was 17.3 µM. The TGI (XF 498 CNS) was 58.3 µM, the GI50 (NCI-H23 lung) was > 63.5 µM and the TGI (NCI-H23 lung) was > 100 µM. For the same compound, the GI50 (HT29 colon) was 30.6 µM, the TGI (HT29 colon) was > 88.9 µM and the GI50 (DMS 273 small cell lung) was > 33.3 µM. For the same compound, the TGI (DMS 273 small cell lung) was > 67.7 µM, the GI50 (MOLT-4 leukemia) was 6.07 µM and the TGI (MOLT-4 leukemia) was 35.8 µM. The GI50 (SK-MEL-2 melanoma) was 22.9 µM, the TGI (SK-MEL-2 melanoma) was > 57.5 µM and the GI50 (UACC-62 melanoma) was > 35.3 µM. For the same compound, the TGI (UACC-62 melanoma) was > 52.2 µM, the GI50 (MALME-3M melanoma) was > 46 µM and the TGI (MALME-3M melanoma) was > 66.3 µM. For the same compound, the GI50 (RPMI-8226 leukemia) was 11.5 µM, the TGI (RPMI-8226 leukemia) was 49.5 µM and the GI50 (HL-60(TB) leukemia) was 3.3 µM. For the same compound, the TGI (HL-60(TB) leukemia) was 16 µM.
